According to patent US9821077B2, “Diagnostic substances for optical imaging testing on the basis of nanoparticular formulations” (NANOPET PHARMA GMBH, priority 2007, dated 2017):
Several values for one entry are separate records, joined by “and”; a condition that tells them apart may be missing. Identical values can stand only once.

How the values were obtained:
[1] = Absorption spectra, absorption maximum; format: physicochemical; conditions: dye in water
Procedure: Absorption spectra in a wavelength range of 700 nm to 900 nm were recorded with a UVIKON 933 Spectrophotometer (company Kontron) in the various solvents. →ICG in water λmax=780 nm ICO micelles λmax=797 nm (FIG. 1A)
Absorption spectra were recorded in a wavelength range of 600 nm to 900 nm with a DU®530 Beckman Spectralphotometer in the various solvents. →ICG in water λmax=779 nm ICG-Cithrol 10 MS micelles λmax=800 nm (FIG. 2A)
Absorption spectra were recorded in a wavelength range of 600 nm to 900 nm with a DU®530 Beckman Spectralphotometer in the various solvents. →ICG in water λmax=779 nm ICG-Crodet S40 LD micelles λmax=800 nm (FIG. 3A)
(§1) Absorption spectra were recorded in a wavelength range of 600 nm to 900 nm with a DU®530 Beckman Spectralphotometer in the various solvents. […]
as §1
Absorption spectra were recorded in a wavelength range of 600 nm to 900 nm with a DU®530 Beckman Spectralphotometer in the various solvents. →NW003.5 in water λmax (monomer)=788 nm NW003.5-Solutol® HS 15 micelles λmax=806 nm (FIG. 6B)
Absorption spectra were recorded in a wavelength range of 600 nm to 900 nm with a DU®530 Beckman Spectra'photometer in the various solvents. →IR-783 in water λmax (Monomer)=775 nm IR-783-Solutol® HS 15 micelles λmax=797 nm (FIG. 7B)

[2] = Fluorescence measurements, quantum yield; format: physicochemical; conditions: in water; standard ICG in DMSO
Procedure: Fluorescence measurements were carried out by means of a FluoroLog-2 Spectrofluorometer (350 W Xenon lamp) of the company Spex. For this purpose, emission spectra of 700 nm to 900 nm were recorded. The excitation wavelength corresponded to the respective maximum of the formulation in the absorption spectrum (ICG in water λmax=780 nm and ICG micelles λmax=795 nm). Due to the s & r modus of the software DM 3000, the different lamp intensities of the different excitation wavelengths could be taken into account in the evaluation.
The quantum yield is calculated via the surface area below the emission curve. ICG in DMSO was used as the standard (Φ=0.13).
(§2) Fluorescence measurements were carried out by means of a Spectrofluorometer FP-6500 of the company JASCO. For this purpose, emission spectra of 770 to 900 nm were recorded. […] The quantum yield is calculated via the surface area below the emission curve. […]
as §2, §2

[3] = Stability test, absorption as a function of time; format: physicochemical; conditions: purely aqueous formulation, 0.0005% ICG, room temperature, 7 days
Procedure: For the stability test the absorption in the maximum of the various formulations was measured as a function of time. For this purpose, 0.0005% ICG solutions were prepared and stored at room temperature.
For the stability test the absorption spectra of the various formulations were measured as a function of time.

[4] = tested on: plasma protein; test: Plasma protein binding by wavelength shift in the absorption spectrum; format: in vitro ADME
Text: For this purpose, spectra of 700 nm to 900 nm of ICG in water and in plasma were compared with spectra of ICG micelles in water and in plasma.

[5] = in DMSO, used as the standard; cited from earlier work

SMILES | absorption maximum λmax [1] | fluorescence quantum yield Φ [2] | standardized absorption after storage [3] | absorption maximum in plasma [4] [nm] | fluorescence quantum yield Φ of the standard [5]
CC1(C)C(/C=C/C=C/C=C/C=C2\N(CCCCS(=O)(=O)O)c3ccc4ccccc4c3C2(C)C)=[N+](CCCCS(=O)(=O)[O-])c2ccc3ccccc3c21 [ICG, indocyanine green] | 779 nm and 780 nm | 0.02 | below 10% | 805 | 0.12 and 0.13
CC1(C)C(=CC=C2CCCC(C=CC3=[N+](CCCCS(=O)(=O)[O-])c4ccccc4C3(C)C)=C2Cl)N(CCCCS(=O)(=O)[O-])c2ccccc21.[Na+] [IR-783] | 775 nm |  |  |  | 
